Here are results for 9 compounds from patent US12624012B2, “14-chloro-β-elemene nitric oxide donor derivative and preparation method and use thereof” (HANGZHOU NORMAL UNIVERSITY, priority 2021, dated 2026).

One assay has as its system U87MG. Put plainly: In vitro anti-tumor activity evaluation test (CCK-8), U87MG. The assay is classed as cell-based, human. The note with it: 72 h; for IC50: read-out: IC50 against different tumor cell lines; for inhibition at 1 µM: read-out: Inhibitory rates against tumor cell lines. As for the experimental part: (§1) • (1) Cells were digested and counted. Cell suspensions (H520, SW620 5.0×10^4 cells/mL, and U87MG 3.5×10^4 cells/mL) were prepared. 100 μL of cell suspension was added to each well of a 96-well cell culture plate. • (2) The 96-well cell culture plate was incubated in a 37° C., 5%, CO2 incubator for 24 h. • (3) A drug was diluted with a culture medium to a desired working solution concentration. 100 μL of the corresponding drug-containing culture medium was added to each well. At the same time, a negative control group and a positive control group were set up. • (4) The 96-well cell culture plate was incubated in a 37° C., 5%, CO2 incubator for 72 h. • (5) The 96-well plate was stained with CCK-8, and at λ=450 nm, the OD value was determined. • 1) 10 μL of CCK-8 was added to each well. The culture plate continued to be incubated in the incubator for 2-3 h. • 2) The culture plate was rocked for 10 min to gently mix and remove air bubbles from the 96-well plate. • 3) At λ=450 nm, the OD value of each well was read by the enzyme marker, and the inhibitory rates were calculated. • (6) According to the following equation (1), the growth inhibitory rate of the tumor cells was obtained. The obtained results were substituted into an IC 50 calculation software SPSS17.0 to find out the IC50 value.

A further assay deals with NCI-H520. The experiment in a line: In vitro anti-tumor activity evaluation test (CCK-8), NCI-H520. The assay is classed as cell-based, human. The note with it: for IC50: read-out: IC50 against different tumor cell lines; for inhibition at 1 µM: read-out: Inhibitory rates against tumor cell lines. As to the method: as §1
A further assay concerns SW620. The experiment in a line: In vitro anti-tumor activity evaluation test (CCK-8), SW620. The assay is classed as cell-based, human. Particulars: for IC50: read-out: IC50 against different tumor cell lines; for inhibition at 1 µM: read-out: Inhibitory rates against tumor cell lines. As for the experimental part:
as §1

The nature of assay [1]: In vitro NO release test (incubation with L-cysteine, OD at 550 nm). The note with it: 100 μM solution with cysteine solution, 37° C. As for the experimental part: • (1) Sodium nitrite solutions with different concentrations were prepared. A calibration curve was drawn. • (2) The sample was treated. A 100 μM solution was prepared. 2.5 mL of the prepared compound solution and 2.5 mL of the cysteine solution were taken and incubated at 37° C. for 120 min, and the resulting mixture was sampled at different time points. • (3) A blank hole and a standard hole were set. 160 μL of the sample was collected and mixed evenly with 0.08 mL of a developer and stood at 37° C. for 15 min. At λ=550 nm, the OD value of absorbance was measured by the enzyme marker. The NO release levels were obtained by substituting the value into the standard curve.

Setting [2] is: Homo sapiens, U-87 MG, U87MG, 1 μM.
[3] abbreviates: Homo sapiens, NCI-H520, 1 μM, 72 h.
[4] abbreviates: Homo sapiens, SW-620, SW620, 1 μM, 72 h.

Like-named read-outs stand apart in the source and are kept apart here.

Take `C=CC1(C)CCC(C(=C)CCl)CC1C(=C)CCl` (stereo not drawn) [13,14-dichloro-β-elemene, reference compound]: the “Inhibitory rates against tumor cell lines” value in the assay with U87MG (U87MG, 1 μM) amounted to 3.5 ± 1.0%; in the assay with NCI-H520 (NCI-H520, 1 μM, 72 h), 0.9 ± 3.0%; in the assay on SW620 (SW620, 1 μM, 72 h) it was 3.3 ± 1.0%. Moreover, the IC50 in the assay with U87MG (U87MG) was greater than 100000 nM; in the assay on NCI-H520 (NCI-H520, 72 h), greater than 100000 nM; in the assay with SW620 (SW620, 72 h), greater than 100000 nM.

As to `C=C[C@]1(C)CC[C@@H](C(=C)CN2CCC(COC(=O)CCC(=O)OCC#CCOc3no[n+]([O-])c3S(=O)(=O)c3ccccc3)CC2)C[C@H]1C(=C)CCl` [Example 15, 4-((4-((4-((1-(2-((1R,3R,4S)-3-(3-chloroprop-1-en-2-yl)-4-methyl-4-vinylcyclohexyl)allyl)piperidin-4-yl)methoxyl)-4-oxobutanoyl)oxy)but-2-yn-1-yl)oxy)-3-(phenylsulfonyl)-1,2,5-oxadiazole 2-oxide], the results for the inhibition at 1 µM with U87MG (setting [2]), in the assay with NCI-H520 (setting [3]) and in the assay with SW620 (setting [4]) were 40.5 ± 3.3%, 45.9 ± 1.4% and 31.3 ± 0.3%, respectively. For the same compound, the IC50 in the assay on NCI-H520 (Homo sapiens, NCI-H520, 72 h) was 1040 ± 33 nM. Besides, the NO-release concentrations stood at 8.67 µM in assay [1] (5 min); 10.07 µM in assay [1] (10 min); 12.979 µM in assay [1] (20 min); 15.92 µM in assay [1] (30 min); 25.47 µM in assay [1] (60 min); 36.31 µM in assay [1] (90 min). This compound also showed an NO-release concentrations in assay [1] (120 min) of 48.15 µM.

Consider `C=C[C@]1(C)CC[C@@H](C(=C)CN2CC[C@H](OC(=O)CCC(=O)OCCOc3no[n+]([O-])c3S(=O)(=O)c3ccccc3)C2)C[C@H]1C(=C)CCl` [Example 9, 4-(2-((4-(((S)-1-(2-((1R,3R,4S)-3-(3-chloroprop-1-en-2-yl)-4-methyl-4-vinylcyclohexyl)allyl)pyrrolidine-3-ly)oxy)-4-oxobutanoyl)oxy)ethyoxyl)-3-(phenylsulfonyl)-1,2,5-oxadiazole 2-oxide], for which the figures for the inhibition at 1 µM with U87MG (setting [2]), in the assay on NCI-H520 (setting [3]) and with SW620 (setting [4]) were 51.3 ± 1.3%, 44.5 ± 2.8% and 39.3 ± 4.2%, respectively. Also, the IC50 with U87MG (Homo sapiens, U-87 MG, U87MG) was 323 ± 13 nM. Besides, the NO-release concentrations in assay [1] (5 min) is 3.25 µM; in assay [1] (10 min), 3.90 µM; in assay [1] (20 min) it was 5.98 µM; in assay [1] (30 min) it was 7.59 µM; in assay [1] (60 min), 11.11 µM; in assay [1] (90 min), 17.29 µM. Besides, in assay [1] (120 min), the NO-release concentrations amounted to 23.48 µM.

As for `C=C[C@]1(C)CC[C@@H](C(=C)CN2CCCC(COC(=O)CCCC(=O)OCCOc3no[n+]([O-])c3S(=O)(=O)c3ccccc3)C2)C[C@H]1C(=C)CCl` (stereo partly drawn) [Example 18, 4-(2-((5-((1-(2-((1R,3R,4S)-3-(3-chloroprop-1-en-2-yl)-4-methyl-4-vinylcyclohexyl)allyl)piperidin-3-yl)methoxyl)-5-oxopentanoyl)oxy)ethyoxyl)-3-(phenylsulfonyl)-1,2,5-oxadiazole 2-oxide], the inhibition at 1 µM in the assay with U87MG (setting [2]) came to 48.3 ± 1.5%; in the assay with NCI-H520 (setting [3]), 43.9 ± 1%; in the assay with SW620 (setting [4]), 46.1 ± 0.9%. The IC50 in the assay on NCI-H520 (Homo sapiens, NCI-H520, 72 h) was found to be 1210 ± 152 nM. For the same compound, the NO-release concentrations in assay [1] (5 min) amounted to 8.89 µM; in assay [1] (10 min), 10.18 µM; in assay [1] (20 min), 12.42 µM; in assay [1] (30 min) it was 14.32 µM; in assay [1] (60 min), 21.50 µM; in assay [1] (90 min), 32.40 µM. This compound also displayed an NO-release concentrations in assay [1] (120 min) of 42.83 µM.

As for `C=C[C@]1(C)CC[C@@H](C(=C)CN2CC[C@H](OC(=O)CCCC(=O)OCCOc3no[n+]([O-])c3S(=O)(=O)c3ccccc3)C2)C[C@H]1C(=C)CCl` [Example 10], the figures for the inhibition at 1 µM in the assay with U87MG (setting [2]), with NCI-H520 (setting [3]) and with SW620 (setting [4]) were 53.1 ± 1.4%, 46.7 ± 2% and 45.9 ± 3.9%, respectively. The IC50 in the assay with U87MG (Homo sapiens, U-87 MG, U87MG) was 343 ± 29 nM; in the assay with NCI-H520 (Homo sapiens, NCI-H520, 72 h), 848 ± 53 nM; in the assay on SW620 (Homo sapiens, SW-620, SW620, 72 h), 1020 ± 90 nM. Moreover, the NO-release concentrations in assay [1] (5 min) is 8.39 µM; in assay [1] (10 min), 9.44 µM; in assay [1] (20 min), 10.65 µM; in assay [1] (30 min), 12.22 µM; in assay [1] (60 min), 18.15 µM; in assay [1] (90 min), 26.49 µM. This compound yielded an NO-release concentrations in assay [1] (120 min) of 34.97 µM.

`C=C[C@]1(C)CC[C@@H](C(=C)CN(CCOC(=O)CCCC(=O)OCC#CCOc2no[n+]([O-])c2S(=O)(=O)c2ccccc2)C(C)C)C[C@H]1C(=C)CCl` [Example 8]: the inhibition at 1 µM in the assay on U87MG (setting [2]) turned out to be 4.5 ± 1%; in the assay on NCI-H520 (setting [3]), 5.6 ± 1.6%; in the assay on SW620 (setting [4]), 10.8 ± 3.2%. Also, the NO-release concentrations in assay [1] (5 min) came to 10.55 µM; in assay [1] (10 min), 12.34 µM; in assay [1] (20 min), 15.52 µM; in assay [1] (30 min) it was 18.95 µM; in assay [1] (60 min), 29.50 µM; in assay [1] (90 min) it was 43.00 µM. This compound showed an NO-release concentrations in assay [1] (120 min) of 55.33 µM.

In the case of `C=C[C@]1(C)CC[C@@H](C(=C)CN(CCOC(=O)CCC(=O)OCC#CCOc2no[n+]([O-])c2S(=O)(=O)c2ccccc2)C(C)C)C[C@H]1C(=C)CCl` [Example 7, 4-((4-((4-(2-((2-((1R,3R,4S)-3-(3-chloroprop-1-en-2-yl)-4-methyl-4-vinylcyclohexyl)allyl)(isopropyl)amino)ethyoxyl)-4-oxobutanoyl)oxy)but-2-yn-1-yl)oxy)-3-(phenylsulfonyl)-1,2,5-oxadiazole 2-oxide], the IC50 is 882 ± 34 nM in the assay with U87MG (Homo sapiens, U-87 MG) and 1110 ± 115 nM with SW620 (Homo sapiens, SW-620, 72 h). Moreover, the inhibition at 1 µM in the assay on U87MG (Homo sapiens, U-87 MG) amounted to 56.7 ± 0.9%; in the assay with NCI-H520 (Homo sapiens, NCI-H520, 72 h), 44.5 ± 2.2%; in the assay on SW620 (Homo sapiens, SW-620, 72 h) it was 46.6 ± 1.2%.

Consider `C=C[C@]1(C)CC[C@@H](C(=C)CN2CCN(CCOC(=O)CCC(=O)OCC#CCOc3no[n+]([O-])c3S(=O)(=O)c3ccccc3)CC2)C[C@H]1C(=C)CCl` [Example 23, 4-((4-((4-(2-(4-(2-((1R,3R,4S)-3-(3-chloroprop-1-en-2-yl)-4-methyl-4-vinylcyclohexyl)allyl)piperazin-1-yl)ethyoxyl)-4-oxobutanoyl)oxy)but-2-yn-1-yl)oxy)-3-(phenylsulfonyl)-1,2,5-oxadiazole 2-oxide], for which the inhibition at 1 µM came out at 33.4 ± 1.5% in the assay with U87MG (setting [2]), 30.3 ± 2.9% in the assay with NCI-H520 (setting [3]) and 21.2 ± 2.1% in the assay with SW620 (setting [4]). Also, the NO-release concentrations in assay [1] (5 min) worked out at 4.74 µM; in assay [1] (10 min) it was 5.95 µM; in assay [1] (20 min), 7.49 µM; in assay [1] (30 min), 7.63 µM; in assay [1] (60 min), 8.44 µM; in assay [1] (90 min), 13.57 µM. The NO-release concentrations in assay [1] (120 min) worked out at 17.82 µM.

Consider `C=C[C@]1(C)CC[C@@H](C(=C)CN2CCN(CCOC(=O)CCCC(=O)OCCOc3no[n+]([O-])c3S(=O)(=O)c3ccccc3)CC2)C[C@H]1C(=C)CCl` [Example 22], for which the values for the inhibition at 1 µM in the assay on U87MG (setting [2]), in the assay on NCI-H520 (setting [3]) and with SW620 (setting [4]) were 52.4 ± 2%, 44.1 ± 2.4% and 42.8 ± 0.5%, respectively. Also, the IC50 was 372 ± 6 nM in the assay on U87MG (Homo sapiens, U-87 MG, U87MG) and 962 ± 54 nM in the assay with NCI-H520 (Homo sapiens, NCI-H520, 72 h). The NO-release concentrations came to 0.33 µM in assay [1] (5 min); 0.90 µM in assay [1] (10 min); 1.35 µM in assay [1] (20 min); 1.91 µM in assay [1] (30 min); 4.05 µM in assay [1] (60 min); 7.20 µM in assay [1] (90 min). In addition, the NO-release concentrations in assay [1] (120 min) amounted to 10.51 µM.

As usually defined, the IC50 is the point on the concentration scale where inhibition reaches its midpoint.
